Format in all cases: cell-based
One test concerns the target T1, M3 muscarinic receptor (Homo sapiens, UniProt P20309).
T1 construct: expressed in transfected cells; host or cells: CHO (M3-CHO)
Description: Functional mobilization of intracellular calcium (FLIPR) in CHO cells expressing M3. Particulars: for EC50: CHO cells expressing M3, FLIPR calcium; for Emax: CHO, read-out: M3 Efficacy; for Emax / M3 Efficacy: 100% = maximum response obtained with the Carbachol control. The method, boiled down: (§1)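 Recombinant CHO cells loaded with Fluo-3 AM or Calcium 3 dye in pH 7.4 buffer containing 1 mM probenecid, with 0.5% final DMSO. For agonism, compound is added directly. For inhibition, it is preincubated 15 min, or co-applied, before carbachol at EC80. FLIPR fluorescence (ex 488, em 540 nm) is recorded for 60 s.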
(In general: Calcium assays in cells follow changes in intracellular calcium, usually with a dye or a luminescent sensor.)

The target in the next test is T2, M4 muscarinic receptor (Homo sapiens, UniProt P08173).
T2 construct: expressed in transfected cells; host or cells: CHO (M4-CHO)
T2 sequence (P08173 1-479): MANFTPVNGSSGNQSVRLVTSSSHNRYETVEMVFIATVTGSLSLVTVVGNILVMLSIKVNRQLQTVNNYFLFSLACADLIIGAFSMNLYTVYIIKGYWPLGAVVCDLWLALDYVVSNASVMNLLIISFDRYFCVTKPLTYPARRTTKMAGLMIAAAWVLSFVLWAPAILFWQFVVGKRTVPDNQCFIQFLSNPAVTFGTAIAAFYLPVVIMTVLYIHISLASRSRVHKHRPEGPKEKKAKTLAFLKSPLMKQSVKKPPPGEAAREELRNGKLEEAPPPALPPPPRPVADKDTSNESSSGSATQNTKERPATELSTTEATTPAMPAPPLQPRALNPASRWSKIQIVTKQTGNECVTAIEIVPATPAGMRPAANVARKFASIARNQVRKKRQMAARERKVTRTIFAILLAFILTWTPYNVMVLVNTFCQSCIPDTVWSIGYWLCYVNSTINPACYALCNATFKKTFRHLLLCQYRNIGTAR
The test can be described thus: Functional mobilization of intracellular calcium (FLIPR) in CHO cells expressing M4. Particulars: for EC50: CHO cells expressing M4, FLIPR calcium; for Emax: CHO, read-out: M4 Efficacy; for Emax / M4 Efficacy: 100% = maximum response obtained with the Carbachol control. The method, boiled down:
as §1

The target of the next test is T3, M1 muscarinic receptor (Homo sapiens, UniProt P11229).
T3 construct: expressed in transfected cells; host or cells: CHO (M1-CHO)
T3 sequence (P11229 1-460): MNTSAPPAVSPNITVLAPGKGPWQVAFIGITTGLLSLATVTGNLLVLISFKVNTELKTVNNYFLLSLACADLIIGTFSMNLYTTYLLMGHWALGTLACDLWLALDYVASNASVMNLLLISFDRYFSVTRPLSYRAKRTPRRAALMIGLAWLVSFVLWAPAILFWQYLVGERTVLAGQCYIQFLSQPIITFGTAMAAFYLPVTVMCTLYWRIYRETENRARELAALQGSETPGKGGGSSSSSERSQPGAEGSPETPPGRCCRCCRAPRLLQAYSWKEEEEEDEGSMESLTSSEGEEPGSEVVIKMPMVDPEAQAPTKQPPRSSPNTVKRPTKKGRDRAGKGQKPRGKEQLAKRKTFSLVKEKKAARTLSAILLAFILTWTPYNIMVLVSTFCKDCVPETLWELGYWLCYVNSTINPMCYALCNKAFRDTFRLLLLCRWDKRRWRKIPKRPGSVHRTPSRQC
Description: Functional mobilization of intracellular calcium (FLIPR) in CHO cells expressing M1. The following applies: for EC50: CHO cells expressing M1, FLIPR calcium; for Emax: CHO, read-out: M1 Efficacy; for Emax / M1 Efficacy: 100% = maximum response obtained with the Carbachol control. In short, it runs like this:
as §1

The target in another test is T4, M2 muscarinic receptor (Homo sapiens, UniProt P08172).
T4 construct: expressed in transfected cells; host or cells: CHO (M2-CHO)
T4 sequence (P08172 1-466): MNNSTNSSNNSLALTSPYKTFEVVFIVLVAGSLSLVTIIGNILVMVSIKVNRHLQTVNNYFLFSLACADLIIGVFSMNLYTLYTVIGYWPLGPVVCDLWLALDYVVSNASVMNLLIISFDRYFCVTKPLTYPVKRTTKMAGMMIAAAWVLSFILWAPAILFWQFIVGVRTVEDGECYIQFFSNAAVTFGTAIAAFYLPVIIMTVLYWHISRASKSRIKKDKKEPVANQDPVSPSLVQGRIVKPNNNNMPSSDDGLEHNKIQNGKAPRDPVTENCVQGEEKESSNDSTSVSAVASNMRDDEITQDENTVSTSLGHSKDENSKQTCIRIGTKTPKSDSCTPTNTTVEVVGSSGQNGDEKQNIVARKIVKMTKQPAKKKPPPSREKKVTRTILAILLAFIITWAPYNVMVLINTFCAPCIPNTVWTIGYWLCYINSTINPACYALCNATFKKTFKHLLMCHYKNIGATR
The test can be described thus: Functional mobilization of intracellular calcium (FLIPR) in CHO cells expressing M2. The following applies: for EC50: CHO cells expressing M2, FLIPR calcium; for Emax: CHO, read-out: M2 Efficacy; for Emax / M2 Efficacy: 100% = maximum response obtained with the Carbachol control. The method, boiled down:
as §1

Consider 16 molecules from US8003660B2, “Modulators of muscarinic receptors” (Vertex Pharmaceuticals Incorporated, priority 2006, dated 2011).

A value given as a limit tells only on which side of the number the result lay.

T1 sequence (P20309 whole entry): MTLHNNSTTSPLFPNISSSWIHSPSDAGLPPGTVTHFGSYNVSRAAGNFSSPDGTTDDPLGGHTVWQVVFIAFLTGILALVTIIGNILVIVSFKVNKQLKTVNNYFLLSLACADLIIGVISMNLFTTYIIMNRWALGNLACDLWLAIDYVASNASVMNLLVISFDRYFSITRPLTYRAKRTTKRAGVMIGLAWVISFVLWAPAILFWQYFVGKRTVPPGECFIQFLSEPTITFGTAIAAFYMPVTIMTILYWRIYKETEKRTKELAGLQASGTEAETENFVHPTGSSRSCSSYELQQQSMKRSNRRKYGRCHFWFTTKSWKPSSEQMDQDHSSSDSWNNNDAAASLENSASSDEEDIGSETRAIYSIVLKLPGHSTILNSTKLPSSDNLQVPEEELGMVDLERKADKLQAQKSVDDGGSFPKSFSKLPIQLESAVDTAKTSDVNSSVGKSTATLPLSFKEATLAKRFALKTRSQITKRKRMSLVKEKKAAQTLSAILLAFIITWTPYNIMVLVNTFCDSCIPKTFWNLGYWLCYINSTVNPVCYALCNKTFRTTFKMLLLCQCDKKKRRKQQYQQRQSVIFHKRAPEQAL

In the case of `CCOCC(=O)N[C@@H]1CCC2(CCN(CCC(C)(C)C)CC2)c2cc(F)ccc21` [compound 63], the EC50 (in general, the concentration at which the effect is half-maximal) on M3 muscarinic receptor is more than 5 µM; on M4 muscarinic receptor, less than 2 µM; at M1 muscarinic receptor, less than 2 µM; on M2 muscarinic receptor, less than 2 µM. In addition, the Emax is less than 25% at M3 muscarinic receptor, 25 to 100% at M4 muscarinic receptor, 25 to 100% at M1 muscarinic receptor and less than 25% on M2 muscarinic receptor.

In the case of `CC(=O)N[C@@H]1CCC2(CCN(CCC(C)(C)C)CC2)c2ccccc21` [compound 64], the EC50 is more than 5 µM at M3 muscarinic receptor, less than 2 µM on M4 muscarinic receptor, 2 to 5 µM on M1 muscarinic receptor and more than 5 µM at M2 muscarinic receptor. Also, the Emax was less than 25% on M3 muscarinic receptor, 25 to 100% at M4 muscarinic receptor, less than 25% at M1 muscarinic receptor and less than 25% on M2 muscarinic receptor.

Consider `CC(C)(C)CCN1CCC2(CC[C@@H](NC(=O)Cc3cccnc3)c3ccc(F)cc32)CC1` [compound 65], for which the EC50 at M3 muscarinic receptor is more than 5 µM; on M4 muscarinic receptor it was less than 2 µM; at M1 muscarinic receptor, less than 2 µM; on M2 muscarinic receptor, 2 to 5 µM. For the same molecule, the Emax is less than 25% on M3 muscarinic receptor, 25 to 100% at M4 muscarinic receptor, 25 to 100% at M1 muscarinic receptor and less than 25% at M2 muscarinic receptor.

Take `CC(=O)N[C@H]1CCC2(CCN(CC(C)(C)C)CC2)c2ccccc21` [compound 66]: the EC50 on M3 muscarinic receptor was more than 5 µM; on M4 muscarinic receptor, less than 2 µM; at M1 muscarinic receptor, less than 2 µM; on M2 muscarinic receptor it was more than 5 µM. Also, the Emax is less than 25% at M3 muscarinic receptor, 25 to 100% on M4 muscarinic receptor, 25 to 100% on M1 muscarinic receptor and 25 to 100% on M2 muscarinic receptor.

Take `CC(C)(C)CCN1CCC2(CC[C@H](NC(=O)C3CC(=O)N3)c3ccc(F)cc32)CC1` (some centres unmarked) [compound 67]: the EC50 on M3 muscarinic receptor was more than 5 µM; at M4 muscarinic receptor it was less than 2 µM; at M1 muscarinic receptor, less than 2 µM; at M2 muscarinic receptor it was less than 2 µM. Moreover, the Emax on M3 muscarinic receptor was less than 25%; at M4 muscarinic receptor, 25 to 100%; on M1 muscarinic receptor, 25 to 100%; on M2 muscarinic receptor, 25 to 100%.

On to `CC(=O)N[C@H]1CCC2(CCN(CCC(C)CCC=C(C)C)CC2)c2ccccc21` (some centres unmarked) [compound 68], for which the EC50 is more than 5 µM on M3 muscarinic receptor, less than 2 µM on M4 muscarinic receptor, less than 2 µM on M1 muscarinic receptor and less than 2 µM at M2 muscarinic receptor. The Emax on M3 muscarinic receptor was less than 25%; on M4 muscarinic receptor it was 25 to 100%; on M1 muscarinic receptor it was more than 100%; at M2 muscarinic receptor, 25 to 100%.

For `CCn1cc(C(=O)N[C@H]2CCC3(CCN(CCC(C)(C)C)CC3)c3ccccc32)cn1` [compound 69], on M3 muscarinic receptor, the “M3 Efficacy” value is “+ (efficacy was calculated to be less than 25%)” and the EC50 is more than 5 µM. In addition, at M4 muscarinic receptor, the “M4 Efficacy” value is “++ (efficacy was calculated to be from 100% to 25%)” and the EC50 is less than 2 µM. In addition, at M1 muscarinic receptor, the “M1 Efficacy” value was “+ (efficacy was calculated to be less than 25%)” and the EC50 was more than 5 µM. Also, on M2 muscarinic receptor, the “M2 Efficacy” value is “+ (efficacy was calculated to be less than 25%)” and the EC50 was more than 5 µM.

As to `CCOCC(=O)N[C@H]1CCC2(CCN(CCC(C)(C)C)CC2)c2ccccc21` [compound 70], the EC50 at M3 muscarinic receptor is more than 5 µM; at M4 muscarinic receptor, less than 2 µM; on M1 muscarinic receptor it was less than 2 µM; on M2 muscarinic receptor, less than 2 µM. Moreover, the Emax was less than 25% on M3 muscarinic receptor, 25 to 100% at M4 muscarinic receptor, 25 to 100% at M1 muscarinic receptor and less than 25% at M2 muscarinic receptor.

For `CC(C)(C)CCN1CCC2(CC[C@H](NC(=O)CN3CCCCCC3=O)c3ccccc32)CC1` [compound 71], the EC50 is more than 5 µM on M3 muscarinic receptor, less than 2 µM on M4 muscarinic receptor, less than 2 µM at M1 muscarinic receptor and less than 2 µM at M2 muscarinic receptor. Besides, the Emax on M3 muscarinic receptor is less than 25%; on M4 muscarinic receptor, 25 to 100%; on M1 muscarinic receptor it was 25 to 100%; on M2 muscarinic receptor it was 25 to 100%.

For the molecule `CC(=O)N1CCCC[C@H]1C(=O)N[C@@H]1CCC2(CCN(CCC(C)(C)C)CC2)c2cc(F)ccc21` [compound 72], the EC50 was more than 5 µM on M3 muscarinic receptor, less than 2 µM at M4 muscarinic receptor, 2 to 5 µM on M1 muscarinic receptor and 2 to 5 µM on M2 muscarinic receptor. Also, the Emax on M3 muscarinic receptor is less than 25%; on M4 muscarinic receptor, 25 to 100%; at M1 muscarinic receptor, 25 to 100%; at M2 muscarinic receptor, less than 25%.

Turning to `CCC(CC)CN1CCC2(CC[C@H](NC(C)=O)c3ccccc32)CC1` [compound 73], the EC50 at M3 muscarinic receptor is more than 5 µM; on M4 muscarinic receptor, less than 2 µM; at M1 muscarinic receptor, less than 2 µM; at M2 muscarinic receptor, more than 5 µM. Moreover, the Emax on M3 muscarinic receptor was less than 25%; at M4 muscarinic receptor, 25 to 100%; on M1 muscarinic receptor, 25 to 100%; on M2 muscarinic receptor, less than 25%.

`CC(C)(C)CCN1CCC2(CC[C@H](NC(=O)c3cccnc3)c3ccccc32)CC1` [compound 74]: at M3 muscarinic receptor, the “M3 Efficacy” value is on record as “+ (efficacy was calculated to be less than 25%)” and the EC50 was more than 5 µM. At M4 muscarinic receptor, the “M4 Efficacy” value was “++ (efficacy was calculated to be from 100% to 25%)” and the EC50 is less than 2 µM. Further, at M1 muscarinic receptor, the “M1 Efficacy” value is given as “++ (efficacy was calculated to be from 100% to 25%)” and the EC50 is less than 2 µM. On M2 muscarinic receptor, the “M2 Efficacy” value is listed as “++ (efficacy was calculated to be from 100% to 25%)” and the EC50 was less than 2 µM.

For the molecule `CC(C)(C)CCN1CCC2(CC[C@@H](NC(=O)[C@@H]3CCC(=O)N3)c3ccc(F)cc32)CC1` [compound 75], the EC50 is more than 5 µM on M3 muscarinic receptor, less than 2 µM at M4 muscarinic receptor, 2 to 5 µM at M1 muscarinic receptor and 2 to 5 µM at M2 muscarinic receptor. Besides, the Emax was less than 25% on M3 muscarinic receptor, 25 to 100% on M4 muscarinic receptor, 25 to 100% at M1 muscarinic receptor and less than 25% at M2 muscarinic receptor.

On to `CC(C)(C)CCN1CCC2(CC[C@@H](NC(=O)CN3CCCC3=O)c3ccc(F)cc32)CC1` [compound 76], for which the EC50 on M3 muscarinic receptor was more than 5 µM; at M4 muscarinic receptor, less than 2 µM; at M1 muscarinic receptor, less than 2 µM; on M2 muscarinic receptor it was less than 2 µM. Also, the Emax at M3 muscarinic receptor is less than 25%; on M4 muscarinic receptor it was 25 to 100%; at M1 muscarinic receptor, 25 to 100%; at M2 muscarinic receptor it was 25 to 100%.

Regarding `CCN(C(C)=O)[C@H]1CCC2(CCN(CCC(C)(C)C)CC2)c2cc(F)ccc21` [compound 77], the EC50 was more than 5 µM on M3 muscarinic receptor, less than 2 µM at M4 muscarinic receptor, less than 2 µM on M1 muscarinic receptor and 2 to 5 µM at M2 muscarinic receptor. The Emax on M3 muscarinic receptor was less than 25%; at M4 muscarinic receptor, 25 to 100%; at M1 muscarinic receptor, 25 to 100%; at M2 muscarinic receptor, less than 25%.

As for `C[C@H](C(=O)N[C@@H]1CCC2(CCN(CCC(C)(C)C)CC2)c2cc(F)ccc21)N1CCCC1=O` [compound 78], the concentration giving a half-maximal response (EC50) on M3 muscarinic receptor is more than 5 µM; at M4 muscarinic receptor, less than 2 µM; at M1 muscarinic receptor it was less than 2 µM; on M2 muscarinic receptor, less than 2 µM. The Emax on M3 muscarinic receptor was less than 25%; at M4 muscarinic receptor, 25 to 100%; at M1 muscarinic receptor, 25 to 100%; at M2 muscarinic receptor it was 25 to 100%.
